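Briefly, cells in 96-well plates were exposed to five compound concentrations for 48 h, and endpoints were estimated by linear interpolation. GI50 is the concentration that inhibits growth by half.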 Active and inactive are the calls of the source. No stated cut-off is given here; in the data, active = GI50 up to about 1.1 µM and inactive = higher.
Experiments:
Test in all cases: NCI-60 cell line screen, 48 h
CAKI-1 = tested on: CAKI-1
HL-60 = tested on: HL-60
SK-MEL-2 = tested on: SK-MEL-2
RPMI-8226 = tested on: RPMI-8226
SK-MEL-5 = tested on: SK-MEL-5
UACC-62 = tested on: UACC-62
NCI-H522 = tested on: NCI-H522
SNB-75 = tested on: SNB-75
BT-549 = tested on: BT-549
SN12C = tested on: SN12C
ACHN = tested on: ACHN
NCI-H23 = tested on: NCI-H23
786-0 = tested on: 786-0
UO-31 = tested on: UO-31
COLO 205 = tested on: COLO 205
EKVX = tested on: EKVX
MCF7 = tested on: MCF7
NCI/ADR-RES = tested on: NCI/ADR-RES
SK-OV-3 = tested on: SK-OV-3

SMILES	GI50 (CAKI-1)	GI50 (HL-60)	GI50 (SK-MEL-2)	GI50 (RPMI-8226)	GI50 (SK-MEL-5)	GI50 (UACC-62)	GI50 (NCI-H522)	GI50 (SNB-75)	GI50 (BT-549)	GI50 (SN12C)	GI50 (ACHN)	GI50 (NCI-H23)	GI50 (786-0)	GI50 (UO-31)	GI50 (COLO 205)	GI50 (EKVX)	GI50 (MCF7)	GI50 (NCI/ADR-RES)	GI50 (SK-OV-3)
Cc1cccc(/N=N/C(=O)NNc2cccc(C)c2C)c1C	39 µM (inactive)	24.5 µM (inactive)	21.9 µM (inactive)	29.4 µM (inactive)	28.6 µM (inactive)	29.5 µM (inactive)	24.7 µM (inactive)	54.3 µM (inactive)	23.3 µM (inactive)	53.1 µM (inactive)	41.7 µM (inactive)	32.7 µM (inactive)	35.2 µM (inactive)	30.8 µM (inactive)					
CC1C[C@]2(C)C(NCCN)=Nc3ccccc3[C@@H]2N(C)c2ccccc21 (stereo partly specified)	15.5 µM (inactive)	16.2 µM (inactive)	17.2 µM (inactive)	14.1 µM (inactive)	13.7 µM (inactive)	13.6 µM (inactive)		3.45 µM (inactive)		14.4 µM (inactive)	16.3 µM (inactive)	16.7 µM (inactive)	12.2 µM (inactive)	11.2 µM (inactive)	2.23 µM (inactive)	16.8 µM (inactive)	8.18 µM (inactive)	26.4 µM (inactive)	
CCn1c2nc(=O)n(CCCCCCCCSC(c3ccccc3)(c3ccccc3)c3ccccc3)c(=O)c-2nc2ccccc21	5.22 µM (inactive)	0.181 µM (active)	8.41 µM (inactive)	4.22 µM (inactive)	3.44 µM (inactive)		3.13 µM (inactive)				3.21 µM (inactive)	8.3 µM (inactive)	14.6 µM (inactive)	6.65 µM (inactive)		7.83 µM (inactive)	6.19 µM (inactive)	> 100 µM (inactive)	82.8 µM (inactive)
COc1ccc(C2C(=O)c3c(OC)cc(OC)cc3OC2c2cccnc2)cc1 (stereo unspecified)	> 100 µM (inactive)		> 100 µM (inactive)		> 100 µM (inactive)	82.2 µM (inactive)	35.8 µM (inactive)	27.4 µM (inactive)		> 100 µM (inactive)	> 100 µM (inactive)	> 100 µM (inactive)	> 100 µM (inactive)	32.2 µM (inactive)	70.3 µM (inactive)	> 100 µM (inactive)	> 100 µM (inactive)	> 100 µM (inactive)	> 100 µM (inactive)
O=C(CC(C(=O)c1cccs1)c1ccsc1)c1ccccc1 (stereo unspecified)	> 100 µM (inactive)			48.8 µM (inactive)	76.9 µM (inactive)	50.7 µM (inactive)	61.7 µM (inactive)	> 100 µM (inactive)		> 100 µM (inactive)	69.5 µM (inactive)	26.4 µM (inactive)	> 100 µM (inactive)	37.8 µM (inactive)	> 100 µM (inactive)	> 100 µM (inactive)	30.7 µM (inactive)	25.1 µM (inactive)	> 100 µM (inactive)
CN(C(=S)Cc1ccc(Cl)c(Cl)c1)C1CCCC[C@@H]1N1CCCC1 (stereo partly specified)	44.6 µM (inactive)	28.5 µM (inactive)	31.6 µM (inactive)	31.8 µM (inactive)	18.5 µM (inactive)	17.5 µM (inactive)			72.1 µM (inactive)	63.7 µM (inactive)	62.1 µM (inactive)	44.2 µM (inactive)	21.9 µM (inactive)	19.6 µM (inactive)		> 100 µM (inactive)		85.9 µM (inactive)	58.7 µM (inactive)
O=[N+]([O-])/C(C(Cl)=C(Cl)Cl)=C(\SCc1ccccc1)N1CCCCC1	> 100 µM (inactive)	9.73 µM (inactive)	21.5 µM (inactive)	11.5 µM (inactive)	15.8 µM (inactive)	17.9 µM (inactive)	14.7 µM (inactive)			20.2 µM (inactive)	17.4 µM (inactive)	18 µM (inactive)	15.9 µM (inactive)	24.2 µM (inactive)	16.4 µM (inactive)	70.3 µM (inactive)	12.6 µM (inactive)		40 µM (inactive)
Cc1ccc(/N=c2/oc3c(ccc4ccccc43)nc2Nc2ccc(C)cc2)cc1	> 100 µM (inactive)	> 100 µM (inactive)	> 100 µM (inactive)	> 100 µM (inactive)	> 100 µM (inactive)	> 100 µM (inactive)	> 100 µM (inactive)	> 100 µM (inactive)		> 100 µM (inactive)	80.4 µM (inactive)	> 100 µM (inactive)	> 100 µM (inactive)	> 100 µM (inactive)	> 100 µM (inactive)	> 100 µM (inactive)		> 100 µM (inactive)	> 100 µM (inactive)
CCOC(=O)c1c(SC(=O)c2ccc(C(C)(C)C)cc2)n(-c2ccccc2)c(=S)n(-c2ccccc2)c1=O	> 100 µM (inactive)	> 100 µM (inactive)				> 100 µM (inactive)	> 100 µM (inactive)	> 100 µM (inactive)		> 100 µM (inactive)	> 100 µM (inactive)	> 100 µM (inactive)	> 100 µM (inactive)		> 100 µM (inactive)	> 100 µM (inactive)	> 100 µM (inactive)	> 100 µM (inactive)	> 100 µM (inactive)
[O-][N+]1=NC(c2ccccc2)=C1c1ccccc1	> 50 µM (inactive)	11.4 µM (inactive)	> 50 µM (inactive)	> 50 µM (inactive)	> 50 µM (inactive)	> 50 µM (inactive)	> 50 µM (inactive)	10.8 µM (inactive)		> 50 µM (inactive)	> 50 µM (inactive)	> 50 µM (inactive)	> 50 µM (inactive)	> 50 µM (inactive)	> 50 µM (inactive)	> 50 µM (inactive)	> 50 µM (inactive)	> 50 µM (inactive)	> 50 µM (inactive)
O=C1C=C2S[C@H]3C[C@]2(C=C1Br)C1=C(N3)C(=O)c2[nH]cc3c2C1=NCC3 [(+)-DISCORHABDIN B]	1.69 µM (inactive)	0.0853 µM (active)	0.469 µM (active)	0.305 µM (active)	1.04 µM (active)	0.555 µM (active)	0.273 µM (active)	1.55 µM (inactive)		1.23 µM (inactive)	0.632 µM (active)	1.22 µM (inactive)	0.883 µM (active)	1.57 µM (inactive)	0.0721 µM (active)	1.68 µM (inactive)	0.52 µM (active)	0.205 µM (active)	5.62 µM (inactive)
CN/C(=N\CCSCc1nc[nH]c1C)NC#N [CIMETIDINE]	> 100 µM (inactive)	> 100 µM (inactive)	> 100 µM (inactive)		> 100 µM (inactive)	> 100 µM (inactive)	> 100 µM (inactive)	33.3 µM (inactive)		> 100 µM (inactive)	> 100 µM (inactive)	> 100 µM (inactive)	> 100 µM (inactive)	> 100 µM (inactive)	> 100 µM (inactive)	> 10 µM (inactive)	> 100 µM (inactive)	> 100 µM (inactive)	> 100 µM (inactive)

From ChEMBL document CHEMBL1201862, “PubChem BioAssay data set” (2004)
